Experimental data taken from patent US9289433B2, “Proteasome inhibitors and uses thereof” (Yeda Research and Development Co. Ltd., priority 2009, dated 2016).
Non-standard residues stand in square brackets, D forms with d. Residues, ends and D or L forms follow the SMILES beside them. *: point of attachment. Nle = CCCC[C@H](N)C(=O)O; Cbz = O=C(OCc1ccccc1)*

Tests used:
[1] = biological target: T1, proteasome (Homo sapiens, UniProt P28072+P28074+Q99436); experiment: Image-based PIR nuclear translocation assay in H1299-PIR reporter cells; format: cell-based; details: for PIR nuclear translocation upon treatment with known proteasome inhibitors: H1299-PIR cells, 6 hours, microscopy; for PIR nuclear translocation in the NCI Diversity Set screen: 1 and 10 μM, 12 hours incubation
T1 construct: endogenous in cells; host or cells: H1299-PIR (H1299 stably expressing the p53-YFP reporter)
Text: To construct a YFP-tagged Proteasome Inhibitor Reporter (PIR) protein, cDNA encoding a full-length human p53 R175H mutant was amplified by PCR from a cDNA clone, and three consecutive lysine residues in the bipartite Nuclear Localization Signal (NLS) were replaced with alanines by PCR-based, site-directed mutagenesis [Higuchi R, et al., (1988) Nucleic Acids Res 16: 7351-7367; Ho S N, et al (1989) Gene 77: 51-59]. The DNA fragment was cloned into the BglII and NotI sites of pLPCX retroviral vector (Clontech) in-frame to the N-terminus of the yellow fluorescent protein (YFP), using the NotI/ClaI restriction sites. The PIR protein was expressed in an H1299 non-small cell lung carcinoma cell line, following retroviral infection, and the cells were cultured in RPMI 1640 medium containing 10% fetal bovine serum, 2 mM glutamine and 1% penicillin-streptomycin (all from Sigma-Aldrich) in a humidified atmosphere of 5% CO2 at 37° C. Fluorescent cells were isolated by flow cytometry, and single-cell cloning was used to generate a morphologically uniform cell population.
PIR-expressing H1299 cells were seeded at a density of 800 cells per well in 384-well assay plates (F-bottom, μClear, black, tissue-culture-treated) (Greiner Bio-One). Cells were cultured for 24 hours and treated with the library compounds at two concentrations (1 and 10 μM) in RPMI 1640. In each assay plate, cells in 24 wells treated with 0.2% DMSO alone were used as controls. […] Following 12 hours of incubation, cells were fixed in 3% paraformaldehyde for 20 minutes, then washed with PBS and screened for localization of the PIR protein.
WiScan™ Cell Imaging System (Idea Bio-Medical) was used for this screen [Paran Y et al., 2006, Methods Enzymol 414: 228-247]. The system is based on an IX71 microscope (Olympus), equipped with a fast laser AutoFocus device and an automated stage. Thirty-six fields were acquired from every well using a 60×/0.9 air objective, stored, and tiled into montages to detect consistent effects. Scoring of the nuclear translocation of the fluorescent PIR protein was carried out manually.
The cells were then fixed and scored for nuclear translocation of PIR.

[2] = biological target: T1, proteasome; details: after 20 hours of treatment, flow cytometry; cited from earlier work
[3] = test system: PIR-H1299 cells; experiment: AlamarBlue cell viability assay; format: cell-based, human; details: 48 hours, 0.1 to 100 μM
Procedure: The effect of each hit compound on cell viability was tested at 11 different concentrations, ranging from 0.1-100 μM. PIR cells were plated onto 384-well microplates for 24 hours, and then treated for 48 h with the library compounds. Cell viability was determined using the colorimetric AlamarBlue® (Invitrogen) viability assay, according to the manufacturer's instructions.
Proteasome inhibitors are known to be particularly cytotoxic to malignant cells via multiple mechanisms. To directly test the effects of the new proteasome inhibitors discovered in this study on cell viability, PIR-expressing H1299 cells were treated for 48 hours with each of the four compounds, at a wide range of concentrations, ranging from 0.1 to 100 μM. The cells were then subjected to an Alamar Blue viability assay, which quantifies the number of metabolically active cells. […] For all proteasome inhibitors examined in this screen, there was a high correlation between proteasomal inhibitory activity and cell viability.

[4] = test system: purified rabbit 26S proteasomes; experiment: In vitro proteasome activity assay, Suc-LLVY-AMC degradation; format: biochemical; details: MG132 control at 5 μM
Procedure: For measuring proteasome activity, purified 20S or 26S proteasomes prepared from rabbit muscles were incubated at a final concentration of 16 nM, with 100 μM fluorogenic 7-amido-4-methylcoumarin (AMC) tetrapeptide substrate Suc-LLVY-AMC (Bachem) and the stated concentration of the hit compounds in the presence of 100 μl of assay buffer (50 mM Hepes, 5 mM MgCl2, 2 mM ATP and 1 mM DTT). […] The time-dependent increase of hydrolyzed AMC groups was measured in a 96-well plate equilibrated to 37° C., using a Varioscan multi-well plate reader (Thermo Fisher Scientific, Inc.) in a kinetic mode, in which the recording intervals were set to 1 minute. The excitation wavelength was 370 nm; fluorescence emission was recorded at 465 nm.
To directly test the capacity of the four compounds to inhibit activity in mammalian proteasomes, an in vitro activity assay was performed in which the hit compounds were tested for their effects on the degradation of the model fluorogenic tetrapeptide LLVY-AMC by purified rabbit 26S proteasomes.

[5] = test system: NCI-60 panel of human tumor cell lines; details: molar concentration, cited from earlier work; for average −log10 GI50 over the panel: all NCI-60 cell lines; for overall −log10 GI50, leukemia cells: leukemia subpanel
[6] = biological target: T1, proteasome; experiment: Western blot for accumulation of polyubiquitinated proteins and β-catenin in H1299-PIR cells; format: cell-based; details: 6 hours
Procedure: H1299-PIR cells were lysed with radioimmune precipitation assay buffer (1% NP-40, 1% sodium deoxycholate, 0.1% SDS, 150 mM NaCl, 50 mM Tris, pH 8.0) containing a protease inhibitor cocktail from Roche Applied Science. Protein extracts were subjected to 8% SDS-PAGE, transferred to a nitrocellulose membrane (Whatman), and probed with monoclonal anti-p53 (DO1, Santa Cruz Biotechnology), anti-ubiquitin (Covance), anti-β-catenin (Sigma) and anti-β-tubulin (Sigma) primary antibodies.
One characteristic outcome of proteasome inhibition is the accumulation of ubiquitinated proteins in the treated cells. […] Following incubation, cell extracts were analyzed by Western blot, using anti-ubiquitin and anti-β-catenin antibodies.

[7] = biological target: proteasome β2, β1 and β5 activities (Homo sapiens, UniProt P28072+P28074+Q99436); experiment: Inhibition of tryptic-, caspase- and chymotrypsin-like proteasome activities; format: biochemical
proteasome β2, β1 and β5 activities, sequence (Q99436 44-277): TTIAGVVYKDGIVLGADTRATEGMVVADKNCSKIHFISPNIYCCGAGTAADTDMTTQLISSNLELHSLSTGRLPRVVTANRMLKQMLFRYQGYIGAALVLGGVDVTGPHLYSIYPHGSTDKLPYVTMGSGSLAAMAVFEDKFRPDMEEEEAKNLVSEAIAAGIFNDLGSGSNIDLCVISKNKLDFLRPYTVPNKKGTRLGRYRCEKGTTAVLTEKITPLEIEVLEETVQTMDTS
proteasome β2, β1 and β5 activities, sequence (P28072 whole entry): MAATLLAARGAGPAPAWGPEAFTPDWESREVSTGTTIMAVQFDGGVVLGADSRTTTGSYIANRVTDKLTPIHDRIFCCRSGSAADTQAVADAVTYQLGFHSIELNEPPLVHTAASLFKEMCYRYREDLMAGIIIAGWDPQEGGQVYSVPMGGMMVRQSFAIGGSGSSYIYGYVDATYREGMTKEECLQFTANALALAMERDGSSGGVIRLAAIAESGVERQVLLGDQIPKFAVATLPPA
proteasome β2, β1 and β5 activities, sequence (P28074 60-263): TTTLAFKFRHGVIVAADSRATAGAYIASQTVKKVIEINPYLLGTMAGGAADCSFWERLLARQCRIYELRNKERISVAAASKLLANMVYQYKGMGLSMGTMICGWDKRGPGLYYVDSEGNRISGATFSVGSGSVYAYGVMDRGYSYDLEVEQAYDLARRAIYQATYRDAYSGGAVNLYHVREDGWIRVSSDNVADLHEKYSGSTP
proteasome β2, β1 and β5 activities, sequence (P49720 whole entry partner): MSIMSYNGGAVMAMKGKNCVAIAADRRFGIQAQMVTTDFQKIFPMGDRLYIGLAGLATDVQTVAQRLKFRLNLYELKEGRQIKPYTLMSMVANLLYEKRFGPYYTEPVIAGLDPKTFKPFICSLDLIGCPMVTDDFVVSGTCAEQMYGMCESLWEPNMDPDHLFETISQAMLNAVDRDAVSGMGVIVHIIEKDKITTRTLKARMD

[8] = test system: MCF10A; experiment: Cell viability, normal breast epithelial cell line; format: cell-based, human; details: considerably higher concentration than for MDA-MB-231
[9] = test system: MDA-MB-231 cells; experiment: Cell viability, malignant breast carcinoma cells; format: cell-based, human

Row | Molecule | GI50 [3] | PIR nuclear translocation in the NCI Diversity Set screen [1] | PIR nuclear translocation upon treatment with known proteasome inhibitors [1] | average −log10 GI50 over the panel [5] | overall −log10 GI50, leukemia cells [5] | inhibition of LLVY-AMC degradation by purified 26S proteasome ([4]; 30 μM compound) | further results
1 | CC(C)C[C@H](NC(=O)[C@H](Cc1ccccc1)NC(=O)c1cnccn1)B(O)O [Bortezomib, Pyz-Phe-boroLeu, reference compound] |  |  | PIR translocates into the nucleus |  |  |  | 
2 | CCCC[C@@H](C=O)NC(=O)[C@H](CC(C)C)NC(=O)[C@H](CC(C)C)NC(C)=O [ALLN, reference compound] (Ac-Leu-Leu-[Nle]-aldehyde) |  |  | PIR translocates into the nucleus |  |  |  | 
3 | CC(C)C[C@@H](C=O)NC(=O)[C@H](CC(C)C)NC(=O)[C@H](CC(C)C)NC(=O)OCc1ccccc1 [MG132, reference compound] (Cbz-Leu-Leu-Leu-aldehyde) |  |  | PIR translocates into the nucleus |  |  |  | concentration at which MG132 is detected [2]: 2.5 µM
4 | 8-Quinolinol salicylate [NSC3907] | 47 µM | positive in the assay |  | 5.3 | 6.249 |  | inhibition of LLVY-AMC degradation by purified 26S proteasome ([4]; 100 μM compound): only a minor effect; accumulation of polyubiquitinated proteins and β-catenin (inhibitory effect on proteasomal degradation) ([6]; 20 μM): less of an inhibitory effect

Further lines, with some results ahead:

Row | GI50 [3] | PIR nuclear translocation in the NCI Diversity Set screen [1] | Molecule | PIR nuclear translocation upon treatment with known proteasome inhibitors [1] | average −log10 GI50 over the panel [5] | overall −log10 GI50, leukemia cells [5] | inhibition of LLVY-AMC degradation by purified 26S proteasome ([4]; 30 μM compound) | further results
5 | 0.27 µM | positive in the assay | CS/C([S-])=N/N=C/c1cccc(C)n1.CS/C([S-])=N/N=C/c1cccc(C)n1.[Cu+2] [NSC310551] |  | 6.6 | 7.028 | levels of inhibition comparable to that of MG132 | accumulation of polyubiquitinated proteins and β-catenin (inhibitory effect on proteasomal degradation) ([6]; 0.3 μM): inhibitory activity comparable to that of 5 μM MG132
6 | 96 µM | positive in the assay | NC(CCC(=O)O)C(=O)O (centres unmarked) [NSC99671] |  | 4.1 | 4.473 | moderate inhibitory effect | accumulation of polyubiquitinated proteins and β-catenin (inhibitory effect on proteasomal degradation) ([6]; 50 μM): less of an inhibitory effect
7 | 0.17 µM | positive in the assay | CSC(=[SH+])[N-]N=C(c1ccccn1)c1ccccn1.[Cu][Br] [NSC321206] |  | 7.2 | 7.73 | levels of inhibition comparable to that of MG132 | inhibition of Tryptic like (β2), Caspase like (β1) and Chymotrypsin like (β5) activities of the proteasome [7]: observed inhibition; accumulation of polyubiquitinated proteins and β-catenin (inhibitory effect on proteasomal degradation) ([6]; 0.15 μM): inhibitory activity comparable to that of 5 μM MG132; effect on cell viability [8]: only partially affected; GI50 ([9]; MDA-MB-231): 0.4 µM; effect on cell viability ([9]; MDA-MB-231, 1 μM): effectively eliminated all MDA-MB-231 cells
